One may read the pEC50 as −log10 of the EC50, conventionally taken in molar units. By pIC50 is commonly meant the negative decadic logarithm of the IC50, by convention in mol/L.

Molecules are shown by their SMILES. pEC50, pIC50: −log10 of the molar value.

The first data set in a line: Modulation of P-gp (unknown origin) transfected in human MDA435/LCC6MDR cells assessed as reversing paclitaxel resistance measured as cell survival after 5 days by MTS assay.
Consider `COc1cc(OC)c2c(c1)O[C@H](c1cc(OC)c(OC)c(OC)c1)[C@H](OC(=O)c1ccc(F)c(NC(=O)c3cc(OC)c(OC)c(OC)c3)c1)C2`, for which the pEC50 is 6.67.

Regarding `COc1cc(OC)c2c(c1)O[C@H](c1cc(OC)c(OC)c(OC)c1)[C@@H](OC(=O)c1ccc(F)c(NC(=O)c3ccc(OC)c(OC)c3)c1)C2`, the pEC50 was 6.77.

In the case of `COc1cc(OC)c2c(c1)O[C@H](c1cc(OC)c(OC)c(OC)c1)[C@@H](OC(=O)c1ccc(F)c(NC(=O)c3cc(OC)c(OC)c(OC)c3)c1)C2`, the pEC50 was 6.85.

Take `COc1cc(OC)c2c(c1)O[C@H](c1cc(OC)c(OC)c(OC)c1)[C@@H](OC(=O)c1ccc(F)c(NC(=O)/C=C/c3ccc(OC)c(OC)c3)c1)C2`: the pEC50 is 6.55.

As for `COc1cc(OC)c2c(c1)O[C@H](c1cc(OC)c(OC)c(OC)c1)[C@@H](OC(=O)c1ccc(F)c(NC(=O)/C=C/c3cc(OC)c(OC)c(OC)c3)c1)C2`, the pEC50 was 6.65.

As for `COc1cc(OC)c2c(c1)O[C@H](c1cc(OC)c(OC)c(OC)c1)[C@H](OC(=O)c1ccc(F)c(NC(=O)c3ccc(OC)c(OC)c3)c1)C2`, the pEC50 was 6.80.

As for `COc1cc(OC)c2c(c1)O[C@H](c1cc(OC)c(OC)c(OC)c1)[C@H](OC(=O)/C=C/c1ccc(OC)c(OC)c1)C2`, the pEC50 was 6.80.

The next data set is described as follows: Modulation of P-gp (unknown origin) transfected in human MDA435/LCC6MDR cells assessed as reversible of paclitaxel resistance measured as IC50 for paclitaxel at 1 uM after 5 days by CellTiter 96 Aqueous assay.
In the case of `COc1ccc(/C=C/C(=O)O[C@H]2Cc3c(OC)cc(OC)cc3O[C@@H]2c2cc(OC)c(OC)c(OC)c2)cc1`, the pIC50 is 7.72.

On to `COc1cc(OC)c2c(c1)O[C@H](c1cc(OC)c(OC)c(OC)c1)[C@@H](O)C2`, for which the pIC50 is 6.87.

Regarding `COc1ccc(C(=O)O[C@H]2Cc3c(OC)cc(OC)cc3O[C@@H]2c2cc(OC)c(OC)c(OC)c2)cc1`, the pIC50 was 7.17.

For `COc1cc(OC)c2c(c1)O[C@H](c1cc(OC)c(OC)c(OC)c1)[C@@H](OC(=O)c1ccc(OC)c(OC)c1)C2`, the negative logarithm of the IC50 (pIC50) is 7.92.

Take `COc1cc(OC)c2c(c1)O[C@H](c1cc(OC)c(OC)c(OC)c1)[C@H](OC(=O)c1ccc(F)c(NC(=O)c3cc(OC)c(OC)c(OC)c3)c1)C2`: the pIC50 is 8.48.

Consider `COc1cc(OC)c2c(c1)O[C@H](c1cc(OC)c(OC)c(OC)c1)[C@H](OC(=O)c1ccc(F)c(NC(=O)c3ccc(F)c(NC(=O)c4ccc(OC)c(OC)c4)c3)c1)C2`, for which the pIC50 is 7.85.

As for `COc1cc(OC)c2c(c1)O[C@H](c1cc(OC)c(OC)c(OC)c1)[C@H](OC(=O)c1ccc(F)c(NC(=O)c3ccc(F)c(NC(=O)c4cc(OC)c(OC)c(OC)c4)c3)c1)C2`, the pIC50 is 7.89.

In the case of `COc1cc(OC)c2c(c1)O[C@H](c1cc(OC)c(OC)c(OC)c1)[C@@H](OC(=O)c1cc(OC)c(OC)c(OC)c1)C2=O`, the pIC50 is 7.36.

Turning to `COc1cc(OC)c2c(c1)O[C@H](c1cc(OC)c(OC)c(OC)c1)[C@@H](OC(C)=O)C2=O`, the pIC50 was 6.97.

Consider `COc1ccc(C(=O)O[C@H]2C(=O)c3c(OC)cc(OC)cc3O[C@@H]2c2cc(OC)c(OC)c(OC)c2)cc1`, for which the pIC50 was 7.32.

As for `COc1cc(OC)c2c(c1)O[C@H](c1cc(OC)c(OC)c(OC)c1)[C@@H](OC(=O)c1ccc(OC)c(OC)c1)C2=O`, the negative logarithm of the IC50 (pIC50) is 7.43.

As to `COc1cccc(C(=O)O[C@@H]2Cc3c(OC)cc(OC)cc3O[C@@H]2c2cc(OC)c(OC)c(OC)c2)c1`, the pIC50 was 7.35.

Consider `COc1cc(OC)c2c(c1)O[C@H](c1cc(OC)c(OC)c(OC)c1)[C@@H](OC(=O)c1ccc(F)c(NC(=O)/C=C/c3ccc(OC)c(OC)c3)c1)C2`, for which the pIC50 is 8.18.

In the case of `COc1cc(OC)c2c(c1)O[C@H](c1cc(OC)c(OC)c(OC)c1)[C@H](OC(=O)c1ccc(F)c(N(C)C)c1)C2`, the pIC50 is 7.44.

For `COc1cc(OC)c2c(c1)O[C@H](c1cc(OC)c(OC)c(OC)c1)[C@H](OC(=O)c1ccc(F)c(NC(C)=O)c1)C2`, the pIC50 was 7.82.

On to `COc1cc(OC)c2c(c1)O[C@H](c1cc(OC)c(OC)c(OC)c1)[C@H](OC(=O)c1ccc(F)c(NC(=O)c3ccc(OC)c(OC)c3)c1)C2`, for which the pIC50 is 8.52.

On to `COc1cc(OC)c2c(c1)O[C@H](c1cc(OC)c(OC)c(OC)c1)[C@H](OC(=O)/C=C/c1ccc(OC)c(OC)c1)C2`, for which the pIC50 was 8.06.

A further data set in a line: Modulation of MRP1 (unknown origin) transfected in human 2008/MRP1 cells assessed as potentiation of doxorubicin-induced cytotoxicity measured as doxorubicin IC50 at 1 uM after 5 days by MTS assay. Background: Tetrazolium assays rely on reduction of a dye to a coloured formazan, in cell work by metabolically active cells.
Regarding `COc1cc(OC)c2c(c1)O[C@H](c1cc(OC)c(OC)c(OC)c1)[C@H](OC(=O)c1ccc(F)c(NC(=O)c3cc(OC)c(OC)c(OC)c3)c1)C2`, the pIC50 was 6.38.

Regarding `COc1cc(OC)c2c(c1)O[C@H](c1cc(OC)c(OC)c(OC)c1)[C@@H](OC(=O)c1ccc(F)c(NC(=O)c3ccc(OC)c(OC)c3)c1)C2`, the pIC50 was 6.85.

On to `COc1cc(OC)c2c(c1)O[C@H](c1cc(OC)c(OC)c(OC)c1)[C@@H](OC(=O)c1ccc(F)c(NC(=O)c3cc(OC)c(OC)c(OC)c3)c1)C2`, for which the pIC50 is 6.85.

Consider `COc1cc(OC)c2c(c1)O[C@H](c1cc(OC)c(OC)c(OC)c1)[C@H](OC(=O)c1ccc(F)c(NC(=O)c3ccc(OC)c(OC)c3)c1)C2`, for which the pIC50 is 6.36.

The next data set is described as follows: Modulation of P-gp (unknown origin) transfected in human MDA435/LCC6MDR cells assessed as reversing vinblastine resistance measured as cell survival after 5 days by MTS assay.
For `COc1cc(OC)c2c(c1)O[C@H](c1cc(OC)c(OC)c(OC)c1)[C@@H](OC(=O)c1ccc(F)c(NC(=O)c3ccc(OC)c(OC)c3)c1)C2`, the pEC50 is 6.76.

Regarding `COc1cc(OC)c2c(c1)O[C@H](c1cc(OC)c(OC)c(OC)c1)[C@@H](OC(=O)c1ccc(F)c(NC(=O)c3cc(OC)c(OC)c(OC)c3)c1)C2`, the pEC50 is 6.97.

In the case of `COc1cc(OC)c2c(c1)O[C@H](c1cc(OC)c(OC)c(OC)c1)[C@H](OC(=O)c1ccc(F)c(NC(=O)c3ccc(OC)c(OC)c3)c1)C2`, the pEC50 is 6.71.

`COc1cc(OC)c2c(c1)O[C@H](c1cc(OC)c(OC)c(OC)c1)[C@H](OC(=O)/C=C/c1ccc(OC)c(OC)c1)C2`: the negative logarithm of the EC50 (pEC50) is 6.91.

The nature of another data set: Modulation of P-gp (unknown origin) transfected in human MDA435/LCC6MDR cells assessed as reversing doxorubicin resistance measured as cell survival after 5 days by MTS assay.
On to `COc1cc(OC)c2c(c1)O[C@H](c1cc(OC)c(OC)c(OC)c1)[C@@H](OC(=O)c1ccc(F)c(NC(=O)c3ccc(OC)c(OC)c3)c1)C2`, for which the pEC50 was 6.68.

In the case of `COc1cc(OC)c2c(c1)O[C@H](c1cc(OC)c(OC)c(OC)c1)[C@@H](OC(=O)c1ccc(F)c(NC(=O)c3cc(OC)c(OC)c(OC)c3)c1)C2`, the negative logarithm of the EC50 (pEC50) is 6.97.

Take `COc1cc(OC)c2c(c1)O[C@H](c1cc(OC)c(OC)c(OC)c1)[C@H](OC(=O)c1ccc(F)c(NC(=O)c3ccc(OC)c(OC)c3)c1)C2`: the pEC50 is 6.86.

With `COc1cc(OC)c2c(c1)O[C@H](c1cc(OC)c(OC)c(OC)c1)[C@H](OC(=O)/C=C/c1ccc(OC)c(OC)c1)C2`, the pEC50 is 6.80.

Another data set in a line: Modulation of BCRP (unknown origin) transfected in human HEK293/R2 cells assessed as potentiation of topotecan-induced cytotoxicity measured as topotecan IC50 at 1 uM after 5 days by MTS assay.
As to `COc1cc(OC)c2c(c1)O[C@H](c1cc(OC)c(OC)c(OC)c1)[C@H](OC(=O)c1ccc(F)c(NC(=O)c3cc(OC)c(OC)c(OC)c3)c1)C2`, the pIC50 is 6.68.

Turning to `COc1cc(OC)c2c(c1)O[C@H](c1cc(OC)c(OC)c(OC)c1)[C@@H](OC(=O)c1ccc(F)c(NC(=O)c3ccc(OC)c(OC)c3)c1)C2`, the pIC50 is 7.35.

Regarding `COc1cc(OC)c2c(c1)O[C@H](c1cc(OC)c(OC)c(OC)c1)[C@@H](OC(=O)c1ccc(F)c(NC(=O)c3cc(OC)c(OC)c(OC)c3)c1)C2`, the pIC50 is 7.42.

As to `COc1cc(OC)c2c(c1)O[C@H](c1cc(OC)c(OC)c(OC)c1)[C@H](OC(=O)c1ccc(F)c(NC(=O)c3ccc(OC)c(OC)c3)c1)C2`, the pIC50 is 6.75.

A further data set can be described thus: Modulation of P-gp (unknown origin) transfected in human MDA435/LCC6MDR cells assessed as reversing vincristine resistance measured as cell survival after 5 days by MTS assay.
Turning to `COc1cc(OC)c2c(c1)O[C@H](c1cc(OC)c(OC)c(OC)c1)[C@@H](OC(=O)c1ccc(F)c(NC(=O)c3ccc(OC)c(OC)c3)c1)C2`, the pEC50 is 6.83.

As for `COc1cc(OC)c2c(c1)O[C@H](c1cc(OC)c(OC)c(OC)c1)[C@@H](OC(=O)c1ccc(F)c(NC(=O)c3cc(OC)c(OC)c(OC)c3)c1)C2`, the pEC50 was 6.99.

For `COc1cc(OC)c2c(c1)O[C@H](c1cc(OC)c(OC)c(OC)c1)[C@H](OC(=O)c1ccc(F)c(NC(=O)c3ccc(OC)c(OC)c3)c1)C2`, the negative logarithm of the EC50 (pEC50) is 6.74.

With `COc1cc(OC)c2c(c1)O[C@H](c1cc(OC)c(OC)c(OC)c1)[C@H](OC(=O)/C=C/c1ccc(OC)c(OC)c1)C2`, the pEC50 is 6.78.

The record behind these values is BindingDB's records for doi:10.1021/acs.jmedchem.5b00085 (The Hong Kong Polytechnic University, 2015).
